Assays:
[1] = target: T1, CRE1/AHK4 (Arabidopsis thaliana, UniProt Q9C5U0); test: Activation of cytokinin receptor CRE1/AHK4 in E. coli KMI001 (β-galactosidase reporter); assay type: cell-based; settings: E. coli KMI001 pIN-III-AHK4, 17 h incubation; n.i. means without interaction
T1 construct: expressed in transfected cells; host or cells: Escherichia coli KMI001, plasmid pIN-III-AHK4
Method: (§1) Escherichia coli strains KMI001 harbouring the plasmid pIN-III-AHK4 or pSTV28-AHK3 were grown overnight at 25° C. in M9 media enriched with 0.1% casamino acids to OD600˜1. The preculture was diluted 1:600 in 1 ml M9 medium containing 0.1% casamino acids and 1 μl stock solution of either the tested compound (10^−7 M−5×10^−5 M) or solvent control (DMSO, ethanol, methanol) were added. The cultures were further grown at 25° C. in microtiter plate, 200 μl per well. […] The cultures were centrifuged and 50 μl aliquots of the supernatant were transferred to microtiter plate containing 2 μl 50 mM 4-methyl umbelliferyl galactoside which was subsequently incubated for 1 h at 37° C. The reaction was stopped by adding 100 μl 0.2 M Na2CO3. Fluorescence was measured using a Fluoroscan Ascent (Labsystems, Finland) at the excitation and emission wavelengths of 365 and 460 nm, respectively. The OD600 of remaining culture was determined and β-galactosidase activity was calculated as nmol 4-methylumbelliferone×OD600^−1×h^−1.
(§2) The EC50 value, the compound concentration activating the receptor to 50%, was calculated from the obtained dose response curves. The compound functioning as cytokinin antagonists should not activate cytokinin signalling pathway. The values shown in Table 2 are means of three replicates and the entire test was repeated at least twice.

[2] = target: T2, AHK3 (Arabidopsis thaliana, UniProt Q9C5U1); test: Activation of cytokinin receptor AHK3 in E. coli KMI001 (β-galactosidase reporter); assay type: cell-based; settings: E. coli KMI001 pSTV28-AHK3, 28 h incubation, n.i. means without interaction
T2 construct: expressed in transfected cells; host or cells: Escherichia coli KMI001, plasmid pSTV28-AHK3
T2 sequence (Q9C5U1 1-1036): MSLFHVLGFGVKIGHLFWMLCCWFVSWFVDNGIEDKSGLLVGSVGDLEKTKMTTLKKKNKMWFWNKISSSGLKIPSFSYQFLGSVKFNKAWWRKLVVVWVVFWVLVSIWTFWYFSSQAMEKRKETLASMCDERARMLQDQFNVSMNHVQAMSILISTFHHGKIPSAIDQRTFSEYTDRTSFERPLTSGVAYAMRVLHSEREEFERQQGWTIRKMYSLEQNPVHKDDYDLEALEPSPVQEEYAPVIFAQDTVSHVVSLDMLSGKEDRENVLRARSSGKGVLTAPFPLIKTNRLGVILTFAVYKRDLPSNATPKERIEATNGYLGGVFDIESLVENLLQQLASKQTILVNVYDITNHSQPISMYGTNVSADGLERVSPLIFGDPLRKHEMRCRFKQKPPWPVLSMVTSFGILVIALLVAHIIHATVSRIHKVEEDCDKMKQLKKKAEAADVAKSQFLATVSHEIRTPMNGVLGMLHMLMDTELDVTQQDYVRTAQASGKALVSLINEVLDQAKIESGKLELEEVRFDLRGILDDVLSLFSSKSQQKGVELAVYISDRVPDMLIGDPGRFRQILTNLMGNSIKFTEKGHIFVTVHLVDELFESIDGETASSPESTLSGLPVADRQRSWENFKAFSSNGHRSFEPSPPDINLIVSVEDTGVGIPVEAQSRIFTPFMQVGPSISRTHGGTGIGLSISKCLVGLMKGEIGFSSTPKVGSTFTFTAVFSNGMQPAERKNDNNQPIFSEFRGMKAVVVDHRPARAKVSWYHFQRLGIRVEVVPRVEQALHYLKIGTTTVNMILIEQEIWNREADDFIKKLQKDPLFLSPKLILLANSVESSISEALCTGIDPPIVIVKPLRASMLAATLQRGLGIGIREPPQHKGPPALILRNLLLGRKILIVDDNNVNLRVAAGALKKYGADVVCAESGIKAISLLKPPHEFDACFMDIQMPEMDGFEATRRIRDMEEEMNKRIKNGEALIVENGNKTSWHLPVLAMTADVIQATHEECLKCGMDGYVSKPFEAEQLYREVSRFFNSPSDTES
Method: as §1, §2

T1 sequence (Q9C5U0 whole entry): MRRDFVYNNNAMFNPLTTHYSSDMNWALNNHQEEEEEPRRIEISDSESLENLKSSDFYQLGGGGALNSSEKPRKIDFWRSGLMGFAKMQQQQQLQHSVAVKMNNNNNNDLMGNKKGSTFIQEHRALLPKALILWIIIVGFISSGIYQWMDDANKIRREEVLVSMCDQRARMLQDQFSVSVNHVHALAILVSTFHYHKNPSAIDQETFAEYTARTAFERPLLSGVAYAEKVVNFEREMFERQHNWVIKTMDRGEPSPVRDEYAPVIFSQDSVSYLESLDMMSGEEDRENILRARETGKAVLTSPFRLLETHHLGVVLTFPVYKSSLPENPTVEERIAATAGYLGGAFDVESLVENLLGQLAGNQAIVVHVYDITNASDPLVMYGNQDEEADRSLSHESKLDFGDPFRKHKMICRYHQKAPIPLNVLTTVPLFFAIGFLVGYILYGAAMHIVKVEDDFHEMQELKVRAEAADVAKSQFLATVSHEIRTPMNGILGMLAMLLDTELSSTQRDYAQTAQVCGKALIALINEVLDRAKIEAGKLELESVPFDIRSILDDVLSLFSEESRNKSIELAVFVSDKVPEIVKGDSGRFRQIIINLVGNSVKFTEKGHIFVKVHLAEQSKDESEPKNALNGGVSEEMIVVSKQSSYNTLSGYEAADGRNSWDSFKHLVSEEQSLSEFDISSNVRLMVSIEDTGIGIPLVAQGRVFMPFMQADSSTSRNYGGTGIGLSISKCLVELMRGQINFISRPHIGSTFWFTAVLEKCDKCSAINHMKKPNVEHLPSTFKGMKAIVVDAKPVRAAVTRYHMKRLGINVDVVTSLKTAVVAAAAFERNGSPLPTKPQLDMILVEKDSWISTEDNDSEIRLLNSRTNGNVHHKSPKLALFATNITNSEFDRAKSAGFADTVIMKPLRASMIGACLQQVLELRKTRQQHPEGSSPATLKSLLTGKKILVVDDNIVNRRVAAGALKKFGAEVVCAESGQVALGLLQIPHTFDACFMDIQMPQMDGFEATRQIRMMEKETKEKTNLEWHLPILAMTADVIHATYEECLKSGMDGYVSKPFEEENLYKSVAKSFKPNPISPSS

Row | EC50 CRE1/AHK4 (activation of cytokinin receptor) [1] | EC50 AHK3 (activation of cytokinin receptor) [2] | EC50 ([2]; read-out: EC50 AHK3 (activation of cytokinin receptor)) [µM] | SMILES
1 | n.i. | n.i |  | CCc1cccc(CNc2ncnc3nc[nH]c23)c1[N+](=O)[O-] [Compound 17, 6-(2-nitro-3-ethylbenzylamino)purine]
2 | n.i. | n.i |  | Cc1ccc(CNc2ncnc3nc[nH]c23)c(O)c1C [Compound 24, 6-(2-hydroxy-3,4-dimethylbenzylamino)purine]
3 | n.i. | n.i |  | Cc1cc(C)c(N)c(CNc2ncnc3nc[nH]c23)c1 [Compound 21, 6-(2-amino-3,5-dimethylbenzylamino)purine]
4 | n.i. | n.i |  | Cc1ccc([N+](=O)[O-])c(CNc2ncnc3nc[nH]c23)c1 [Compound 16, 6-(2-nitro-5-methylbenzylamino)purine]
5 | n.i. | n.i |  | Cc1cc(C)c(O)c(CNc2ncnc3nc[nH]c23)c1 [Compound 23, 6-(2-hydroxy-3,5-dimethylbenzylamino)purine]

Second part, the molecule before the results:

Row | SMILES | EC50 CRE1/AHK4 (activation of cytokinin receptor) [1] | EC50 AHK3 (activation of cytokinin receptor) [2] | EC50 ([2]; read-out: EC50 AHK3 (activation of cytokinin receptor)) [µM]
6 | Cc1ccc(N)c(CNc2ncnc3nc[nH]c23)c1 [Compound 3, 6-(2-amino-5-methylbenzylamino)purine] | n.i. | n.i | 
7 | Cc1cccc(CNc2ncnc3nc[nH]c23)c1N [Compound 1, 6-(2-amino-3-methylbenzylamino)purine] | n.i. | n.i | 
8 | Cc1ccc(CNc2ncnc3nc[nH]c23)c(N)c1 [Compound 2, 6-(2-amino-4-methylbenzylamino)purine] | n.i. | n.i | 
9 | Cc1cccc(CNc2ncnc3nc[nH]c23)c1[N+](=O)[O-] [Compound 15, 6-(2-nitro-3-methylbenzylamino)purine] | n.i. |  | > 100
10 | Cc1ccc(CNc2ncnc3nc[nH]c23)c(O)c1 [Compound 9, 6-(2-hydroxy-4-methylbenzylamino)purine] | n.i. | n.i | 
11 | CCc1ccc(O)c(CNc2ncnc3nc[nH]c23)c1 [Compound 13, 6-(2-hydroxy-5-ethylbenzylamino)purine] | n.i. | n.i | 
12 | CCc1ccc(N)c(CNc2ncnc3nc[nH]c23)c1 [Compound 5, 6-(2-amino-5-ethylbenzylamino)purine] | n.i. | n.i | 
13 | CCc1cccc(CNc2ncnc3nc[nH]c23)c1N [Compound 4, 6-(2-amino-3-ethylbenzylamino)purine] | n.i. | n.i | 
14 | CCc1cccc(CNc2ncnc3nc[nH]c23)c1O [Compound 12, 6-(2-hydroxy-3-ethylbenzylamino)purine] | n.i. | n.i | 

— patent US20100240537A1, “Substituted 6-(alkylbenzylamino)purine derivatives for use as cytokinin receptor antagonists and preparations containing these derivatives” (priority 2007, published 2010)
